Experiments:
mouse sarcoma cells S180 = settings: 0.02 g/(Kg.d) i.p.
Protocol: (§1) Ascites mice S180 and H22 that had been vaccinated 7 days were sacrificed by cervical, from which ascites were obtained under sterile conditions respectively; the obtained ascites were washed twice with culture medium RPMI1640, and prepared to a 2×10^7/ml suspension in sterile physiological saline. The suspension of cell S180 was inoculated subcutaneously in the right axillas of 40 mice (0.1 ml/mouse) to produce solid tumor models; while the suspension of cell H22 was inoculated in abdominal cavities of 40 mice (0.2 ml/mouse) by conditional means under sterile conditions to produce ascites tumor models.
(§2) 90 mice were randomly divided into 9 groups of 3 types, wherein the first type group was a normal control group, the second type groups were S180 solid tumor groups including a positive (cyclophosphamide) control group, a negative control group, a low dose group and a high dose group, and the third type groups were H22 ascites groups including a positive (cyclophosphamide) control group, a negative control group, a low dose group and a high dose group. There were 10 mice in each group. The experiment was repeated for three times.
(§3) […], the negative control group was injected same volume of corn oil, and the positive control group was injected cyclophosphamide injection solution with the dose of 0.02 g/(Kg.d). The used injection volume was 0.1 ml/mouse and the injection was given as intraperitoneal injection every other day for 15 days. During the 15 days, general activities, fur, feces, etc. of the mice were daily observed. 24 hours after the last administration, mice that had been inoculated subcutaneously with S180 were sacrificed by cervical, from which tumors, thymus and spleen were taken out. After the last administration, mice that had been inoculated in abdominal cavities with H22 were conventionally bred continually, weighted and observed the survival time every day until all the mice in the negative group were dead.
(§4) After finishing the administration in all mice in the solid tumor group, the mice were sacrificed and their spleens and livers were weighed by electronic balance. The spleen index was equivalent to the spleen weight (mg) of mice in each group divided by the weight of the mice, while the liver index was equivalent to the liver weight […] divided by the weight (g) of the mice.
On the next day after drug withdrawal, the mice in the solid-tumor […] group were weighed and sacrificed by cervical, wherein the serum was collected by eye bleeding for later use in subsequent experiments. Tumor tissues were dissected and weighed by electronic balance. The tumor inhibition rate was calculated as follows. Tumor Inhibition Rate(%)=[(mean tumor weight of negative control group−mean tumor weight of treatment group)/mean tumor weight of control group]×100%

VEGF = settings: positive CTX control group, OD at 450 nm
Protocol: Before taking tumors out, blood was collected by eye bleeding from mice in the four groups, i.e. the negative control group, the positive CTX control group, the high dose (32 mg/kg) group and the low dose (16 mg/kg) group.
1.1 Preparing reagents, samples and standards;
1.2 Adding the prepared samples and standards, and reacting for 90 minutes at 37° C.;
1.3 Washing the plate twice, adding biotinylated antibody working solution, and reacting for 60 minutes at 37° C.;
1.4 Washing the plate for three times, adding ABC working solution, and reacting for 30 minutes at 37° C.;
1.5 Washing the plate for five times, adding TMB color liquid, and reacting in dark for 15 minutes at 37° C.;
1.6 Adding TMB stop solution, and measuring OD value at 450 nm.

mouse hepatoma cells H22 = settings: 0.02 g/(Kg.d) i.p.
Protocol: as §1, §2, §3
24 hours after the inoculation of ascites, the weight and the amount of abdominal circumference of the mice in the groups of ascites models were measured. The drug administration and breeding were continued according to different groups, the weight and the abdominal circumference were measured daily until one day before death. The weight increase (g) and abdominal-circumference increase (cm) were calculated. The experiment started on the day of tumor inoculation and ended on the day when all the mice in the negative control group were dead; the time of deaths were recorded, and the survival extending rate was calculated. Survival Extending Rate(%)=[(mean survival days of treatment group−mean survival days of negative control group)/mean survival days of control group]×100%
as §4

CAM vessels = assay: CAM assay, effect on tumor angiogenesis; format: in vivo, German Roman embryonated eggs; settings: 4 ug/embryo, 72 hours incubation
Protocol: A sterile gelatin sponge, previously made into disks with diameter of 5 mm by a hole puncher, was used as sample carrier. […] There were 3 dose groups, wherein 5 μl (low dose group, with a dose volume of 2 μg/embryo), 10 μl (middle dose group, with a dose volume of 4 μg/embryo), and 20 μl (high dose group, with a dose volume of 8 μg/embryo) of the solution were added respectively into gelatin sponge slices by a quantitative liquid transfer. The sponge slices were dried in the sterile environment.
A sterilized egg was placed into a 37° C. incubator with its air chamber upward. In the 7th day, the embryo was positioned on a super-clean bench and sterilized by ethanol, and then it was drilled by a dental drill to form a little hole in the top of the embryo. Egg shell and shell membrane around the hole were carefully removed to form an opening of about 1.2 cm×1.2 cm; after determining a sample-adding site, the air chamber membrane was carefully pricked at the separation place between the chamber and the yolk by a syringe needle; through the prick hole 1-2 drops of sterilized water was injected, which made the chamber membrane and the CAM membrane be separated; after gently removing the upper layer of the chamber membrane with forceps, the CAM membrane in the lower layer was exposed.
A drug-containing carrier was placed, at the junction area of the CAM membrane and the yolk sac membrane, on a site where vessels were less, and then sealed with sterilized transparent adhesive tape to continue to incubate for 72 hours.
After the incubation, the transparent adhesive tape stopped on the top of the air chamber was gently removed by forceps; a mixture of methanol/acetone (1:1, 1-2 ml) was gently added; the room temperature was remained constant for 10 minutes. Then, the CAM membrane was carefully peeled off and placed on a glass slide for observing and taking photos. The effect of the compound on angiogenesis was assessed by counting the numbers of large, middle, small blood vessels radiated by the carrier.

Row | SMILES | Liver index (100 g/g) (mouse sarcoma cells S180; S180 mice) | Spleen index (mg/g) (mouse sarcoma cells S180; S180 mice) | Tumor inhibition rate (%) (mouse sarcoma cells S180; S180 sarcoma mice) | Tumor weight (g) (mouse sarcoma cells S180; S180 sarcoma mice) | Weight increase (g) (mouse sarcoma cells S180; S180 sarcoma mice) | OD value of serum VEGF (VEGF) | Abdominal circumference increase (cm) (mouse hepatoma cells H22; H22 ascites mice) | Survival extending rate (%) (mouse hepatoma cells H22; H22 ascites mice) | Survival time (day) (mouse hepatoma cells H22; H22 ascites mice) | Weight increase (g) (mouse hepatoma cells H22; H22 ascites mice) | Weight increase (mouse hepatoma cells H22; H22 ascites mice, listed as cyclophosphamide) [g] | Liver index (100 g/g) (mouse hepatoma cells H22; ascites mice) | Spleen index (mg/g) (mouse hepatoma cells H22; ascites mice) | Large vessels (number of the vessels) (CAM vessels) | Middle vessels (number of the vessels) (CAM vessels) | Small vessels (number of the vessels) (CAM vessels)
1 | O=P1(N(CCCl)CCCl)NCCCO1 (stereo not shown) [Cyclophosphamide, reference compound] | 3.09 ± 0.31^(1)(4) 100 g/g | 2.76 ± 0.64^(1)(4) mg/g | 62.63 | 0.518 ± 0.231^(4) g | 4.76 ± 1.01^(1)(3) g | 0.2205 ± 0.0238 | 2.30 ± 0.66^(2)(4) cm | 57.73 | 15.3 ± 1.06^(4) day | 3.42 ± 1.67^(2)(4) g | 3.42 | 3.26 ± 0.27^(1)(4) 100 g/g | 2.45 ± 0.34^(1)(4) mg/g |  |  | 
2 | Cc1ccc(C(=O)Nc2ccc(S(=O)(=O)O)c3cc(S(=O)(=O)O)cc(S(=O)(=O)O)c23)cc1NC(=O)c1cccc(NC(=O)Nc2cccc(C(=O)Nc3cc(C(=O)Nc4ccc(S(=O)(=O)O)c5cc(S(=O)(=O)O)cc(S(=O)(=O)O)c45)ccc3C)c2)c1 [Suramin, reference compound] |  |  |  |  |  |  |  |  |  |  |  |  |  | 3.6 ± 2.0 | 12.4 ± 3.8 | 6.1 ± 3.0

Reference: US8853194B2, “Sterol derivatives and their synthesis and use” (priority 2009, dated 2014)
